This is an account of results in patent publication US9670213B2, “Pteridine ketone derivative and applications thereof as EGFR, BLK, and FLT3 inhibitor” (EAST CHINA UNIVERSITY OF SCIENCE AND TECHNOLOGY, priority 2012, dated 2017).

For one assay, the target named is EGFR-T790M (Homo sapiens (Human), UniProt P00533, T790M). Briefly: In vitro EGFR kinase activity assay (Z'-Lyte). The note with it: read-out: Inhibitory activity on EGFR kinase (IC50, nM) T790M.
The target of a further assay is EGFR-L858R/T790M (Homo sapiens (Human), UniProt P00533, L858R/T790M). Nature of the assay: In vitro EGFR kinase activity assay (Z'-Lyte). The assay is classed as biochemical. To be noted: read-out: Inhibitory activity on EGFR kinase (IC50, nM) T790M/L858R.
Chain of EGFR-L858R/T790M (P00533 25-1210 T790M/L858R): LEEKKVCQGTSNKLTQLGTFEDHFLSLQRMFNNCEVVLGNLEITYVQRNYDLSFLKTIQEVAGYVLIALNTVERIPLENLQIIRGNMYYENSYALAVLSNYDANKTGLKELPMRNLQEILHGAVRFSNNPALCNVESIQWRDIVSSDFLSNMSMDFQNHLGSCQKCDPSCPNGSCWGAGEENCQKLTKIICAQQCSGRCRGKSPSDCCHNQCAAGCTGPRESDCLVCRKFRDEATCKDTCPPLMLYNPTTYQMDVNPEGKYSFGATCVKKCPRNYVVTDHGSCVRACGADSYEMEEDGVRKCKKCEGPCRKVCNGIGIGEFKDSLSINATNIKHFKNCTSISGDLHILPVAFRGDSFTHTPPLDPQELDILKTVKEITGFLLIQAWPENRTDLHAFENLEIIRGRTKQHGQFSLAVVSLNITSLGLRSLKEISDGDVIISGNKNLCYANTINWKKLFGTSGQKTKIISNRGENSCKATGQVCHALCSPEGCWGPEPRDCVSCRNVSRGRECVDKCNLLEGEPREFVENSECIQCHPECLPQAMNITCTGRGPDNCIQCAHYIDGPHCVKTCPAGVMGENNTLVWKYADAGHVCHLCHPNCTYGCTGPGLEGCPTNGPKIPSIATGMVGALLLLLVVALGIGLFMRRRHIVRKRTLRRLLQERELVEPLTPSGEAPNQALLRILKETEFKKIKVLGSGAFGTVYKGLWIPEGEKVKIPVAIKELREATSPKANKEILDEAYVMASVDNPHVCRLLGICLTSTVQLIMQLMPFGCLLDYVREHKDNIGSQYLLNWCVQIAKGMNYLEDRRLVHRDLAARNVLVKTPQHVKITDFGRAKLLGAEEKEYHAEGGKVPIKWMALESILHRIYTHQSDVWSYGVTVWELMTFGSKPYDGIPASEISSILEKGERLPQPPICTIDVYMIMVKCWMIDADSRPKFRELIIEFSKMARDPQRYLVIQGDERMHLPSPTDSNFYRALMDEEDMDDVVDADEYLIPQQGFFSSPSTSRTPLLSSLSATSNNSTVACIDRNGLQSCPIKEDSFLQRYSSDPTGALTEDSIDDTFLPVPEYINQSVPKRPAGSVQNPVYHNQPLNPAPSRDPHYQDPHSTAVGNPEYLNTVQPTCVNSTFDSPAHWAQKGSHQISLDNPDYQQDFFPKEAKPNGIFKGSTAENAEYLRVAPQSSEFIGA
For another assay, the target named is wild-type EGFR (Homo sapiens (Human), UniProt P00533). Nature of the assay: In vitro EGFR kinase activity assay (Z'-Lyte). It is filed as biochemical. To be noted: EGFR WT; read-out: Inhibitory activity on EGFR kinase (IC50, nM) WT.
Chain of wild-type EGFR (P00533 25-1210): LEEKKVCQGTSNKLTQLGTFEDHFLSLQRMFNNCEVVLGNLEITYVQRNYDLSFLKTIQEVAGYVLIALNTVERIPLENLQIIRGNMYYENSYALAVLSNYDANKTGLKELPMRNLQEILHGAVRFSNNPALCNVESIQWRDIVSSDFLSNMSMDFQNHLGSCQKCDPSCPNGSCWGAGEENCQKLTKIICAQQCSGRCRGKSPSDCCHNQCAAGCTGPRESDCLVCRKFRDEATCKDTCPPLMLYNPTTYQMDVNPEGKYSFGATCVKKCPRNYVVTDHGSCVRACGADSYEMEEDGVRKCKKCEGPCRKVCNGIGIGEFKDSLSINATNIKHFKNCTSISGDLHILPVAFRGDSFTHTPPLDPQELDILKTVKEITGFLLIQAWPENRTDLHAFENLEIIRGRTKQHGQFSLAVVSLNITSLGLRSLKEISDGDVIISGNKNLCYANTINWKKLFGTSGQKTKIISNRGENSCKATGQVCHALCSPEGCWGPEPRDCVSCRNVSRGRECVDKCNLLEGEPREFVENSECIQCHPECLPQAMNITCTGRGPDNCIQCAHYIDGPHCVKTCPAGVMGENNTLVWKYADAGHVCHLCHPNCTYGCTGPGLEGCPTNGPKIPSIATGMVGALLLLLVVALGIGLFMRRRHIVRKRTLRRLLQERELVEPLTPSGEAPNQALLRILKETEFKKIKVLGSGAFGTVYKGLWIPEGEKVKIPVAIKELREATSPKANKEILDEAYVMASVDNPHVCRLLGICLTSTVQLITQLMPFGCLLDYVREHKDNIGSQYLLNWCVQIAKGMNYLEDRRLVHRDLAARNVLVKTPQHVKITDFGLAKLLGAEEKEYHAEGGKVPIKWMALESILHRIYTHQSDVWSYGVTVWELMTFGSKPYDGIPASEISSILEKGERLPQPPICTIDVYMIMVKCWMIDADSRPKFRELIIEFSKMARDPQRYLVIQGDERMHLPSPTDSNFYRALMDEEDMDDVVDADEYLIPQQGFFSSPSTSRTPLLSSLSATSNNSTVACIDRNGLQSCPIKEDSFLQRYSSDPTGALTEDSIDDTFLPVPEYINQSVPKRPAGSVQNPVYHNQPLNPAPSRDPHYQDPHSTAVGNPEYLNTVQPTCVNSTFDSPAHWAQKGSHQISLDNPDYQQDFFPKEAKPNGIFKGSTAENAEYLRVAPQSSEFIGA
The target in a further assay is FLT3 (Homo sapiens (Human), UniProt P36888). Briefly: FLT3 kinase activity assay (Caliper). It is filed as biochemical. To be noted: read-out: Inhibitory activity on kinase (IC50, nM) FLT3. As for the experimental part: (§1) Preparation of 1× kinase matrix buffer and stop buffer.
Chain of FLT3 (P36888 27-993): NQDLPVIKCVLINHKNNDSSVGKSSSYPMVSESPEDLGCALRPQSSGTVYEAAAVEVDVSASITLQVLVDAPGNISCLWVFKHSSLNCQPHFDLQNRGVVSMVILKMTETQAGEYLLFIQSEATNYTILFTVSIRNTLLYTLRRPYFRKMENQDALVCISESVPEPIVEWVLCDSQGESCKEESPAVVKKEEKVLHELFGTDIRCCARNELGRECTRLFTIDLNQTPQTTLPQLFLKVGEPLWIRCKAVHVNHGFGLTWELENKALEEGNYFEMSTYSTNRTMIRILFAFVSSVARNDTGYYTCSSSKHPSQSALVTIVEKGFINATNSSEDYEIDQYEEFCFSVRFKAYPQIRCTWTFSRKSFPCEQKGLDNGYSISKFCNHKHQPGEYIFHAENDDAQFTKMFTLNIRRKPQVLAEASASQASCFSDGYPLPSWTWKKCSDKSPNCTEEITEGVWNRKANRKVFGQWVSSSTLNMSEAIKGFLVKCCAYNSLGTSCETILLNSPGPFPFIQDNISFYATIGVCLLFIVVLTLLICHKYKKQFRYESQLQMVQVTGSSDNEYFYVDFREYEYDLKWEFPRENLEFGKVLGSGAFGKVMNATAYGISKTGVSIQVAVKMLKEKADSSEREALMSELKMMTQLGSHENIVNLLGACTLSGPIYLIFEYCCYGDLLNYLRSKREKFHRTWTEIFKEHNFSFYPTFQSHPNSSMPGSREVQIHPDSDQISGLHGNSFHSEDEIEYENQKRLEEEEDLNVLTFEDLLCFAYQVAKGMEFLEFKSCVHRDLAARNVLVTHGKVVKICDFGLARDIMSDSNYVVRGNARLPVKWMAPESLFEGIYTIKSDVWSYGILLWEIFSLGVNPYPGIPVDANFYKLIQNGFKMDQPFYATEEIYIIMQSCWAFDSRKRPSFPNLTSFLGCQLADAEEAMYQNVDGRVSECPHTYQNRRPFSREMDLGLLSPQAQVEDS
(§2) Preparation of compound solution. The compound was dissolved in 100% DMSO to a concentration, which was 50 times of the final highest inhibiting-concentration. 100 μL of the compound solution as said above was transferred into wells of 96-well plate. The above compound solution was sequentially diluted to the final desired concentration. In two blank wells of same 96-well plate, 100 μL of 100% DMSO was added as no-compound and no-kinase control, and this plate was used as the original plate.
(§3) Preparation of intermediate plate. 10 μL of compound solution was transferred from the original plate to another 96-well plate as the intermediate plate; 90 μL of 1× kinase buffer was added into each well of the intermediate plate, and the intermediate plate was shaken for 10 min.
(§4) Preparation of assay plate. 5 μL of solution from each well of intermediate plate was added into a 384-well plate, and repeated controls were set.
(§5) Kinase reaction. 2.5× kinase solution and 2.5× peptide solution were prepared. 2.5× kinase solution was transferred into assay plate. Assay plate comprised 5 μL of the compound solution in 10% DMSO. 10 μL of 2.5× kinase solution was added in each well of 384-well assay plate. […] 2.5× peptide solution was added into each well. After incubated at 28° C. for an appropriate time, 25 μL of stop buffer was added to quench the reaction. Experimental data were collected in Caliper. Curve was fitted.

For assay [1], the system named is H1975 (non-small cell lung cancer cells, EGFR L858R/T790M). Briefly: Cell proliferation and growth inhibition analysis. To be noted: Homo sapiens, NCI-H1975, 72 hours, read-out: Inhibitory activity on cell proliferation (IC50, μM) H1975. The assay is classed as cell-based. How it is done:
(§6) Cell proliferation was evaluated by MTS assay. Cells were exposed to the process conditions for 72 hours, and the number of cells for each cell line used in the experiment was adjusted according to the absorbance value (absorbance value at 490 nm was 1.3-2.2). 6 concentration gradients (0.1 nM-10 μM) were set for the compounds to be tested, with six parallel controls for each concentration.
(§7) H1975, HCC827, A549, BT474, MCF-7, SK-BR-3 cells were cultured in the corresponding medium. Upon recovery, the cells were passaged at least two times and then used in experiments. Cells in Log phase were trypsinized and resuspended in the medium. H1975 (1000 cells per well), BT474 (1500 cells per well), MCF-7 (1500 cells per well), HCC827 (2000 cells per well), SK-BR-3 (2000 cells per well), A549 (2000 cells per well) were seeded into 96-well plates, the volume was 100 μL, and 6 rows and 7 columns were set. The plate was placed in an incubator at 37° C. of 5% carbon dioxide overnight. Compounds were dissolved in DMSO to obtain the concentration of […], and then gradually diluted to obtain the concentration of compound as […], 0.1 μM, 0.01 μM, 0.001 μM, 0.0001 μM. 2 μL of compound solution was added into 998 μL of medium, and the resulting mixture was thoroughly mixed. 100 μL of mixture was added into 96-well plate. […] After the cells were cultured for 68 hours, 20 μL of MTT (5 mg/mL) was added. After 4 hours, the supernatant was discarded and 150 μL of DMSO was added. The resulting system was shaken for 10 minutes, and the plate was read with Synergy HT (Bio TeK) (OD490). The data was calculated by GraphPad Prism version 4.0, and IC50 was obtained by non-linear regression model using dose-response curve.

Assay [2] concerns HCC827 (non-small cell lung cancer cells, EGFR del E746-A750). Nature of the assay: Cell proliferation and growth inhibition analysis. To be noted: Homo sapiens, 72 hours, read-out: Inhibitory activity on cell proliferation (IC50, μM) HCC827. It is filed as cell-based. As for the experimental part:
as §6, §7

The next assay deals with MCF-7. Nature of the assay: Cell proliferation and growth inhibition analysis. The assay is classed as cell-based. The note with it: Homo sapiens, MCF7; MCF-7 cells, 72 hours; read-out: Inhibitory activity on cell proliferation (IC50, μM) MCF-7. As for the experimental part: as §6, with “Cell proliferation and growth inhibition analysis: H1975 (non-small cell lung cancer cells, EGFR^L858/T790M), HCC827 (non-small cell lung cancer cells, EGFR^del E746-A750), A549 (non-small cell lung cancer cells, EGFR wild-type), BT474 (breast cancer cells, Her2 overexpression), SK-BR-3 (breast cancer cells, Her2 overexpression), MCF-7 (breast cancer cells, […]) cells were obtained from ATCC. Cell proliferation” for “Cell proliferation”

The subject of assay [3] is A549 (non-small cell lung cancer cells, EGFR wild-type). Nature of the assay: Cell proliferation and growth inhibition analysis. To be noted: Homo sapiens, 72 hours, read-out: Inhibitory activity on cell proliferation (IC50, μM) A549. The assay is classed as cell-based. How it is done: as §6, with “Cell proliferation and growth inhibition analysis: H1975 (non-small cell lung cancer cells, EGFR^L858/T790M), HCC827 (non-small cell lung cancer cells, EGFR^del E746-A750), A549 (non-small cell lung cancer cells, EGFR wild-type), BT474 (breast cancer cells, Her2 overexpression), SK-BR-3 (breast cancer cells, Her2 overexpression), MCF-7 (breast cancer cells, […]) cells were obtained from ATCC. Cell proliferation” for “Cell proliferation”

Assay [4] concerns SK-BR-3 (breast cancer cells, Her2 overexpression). Briefly: Cell proliferation and growth inhibition analysis. The assay is classed as cell-based. The note with it: Homo sapiens; SK-BR-3 cells, 72 hours; read-out: Inhibitory activity on cell proliferation (IC50, μM) SK-BR-3. How it is done:
as §6, with “Cell proliferation and growth inhibition analysis: H1975 (non-small cell lung cancer cells, EGFR^L858/T790M), HCC827 (non-small cell lung cancer cells, EGFR^del E746-A750), A549 (non-small cell lung cancer cells, EGFR wild-type), BT474 (breast cancer cells, Her2 overexpression), SK-BR-3 (breast cancer cells, Her2 overexpression), MCF-7 (breast cancer cells, […]) cells were obtained from ATCC. Cell proliferation” for “Cell proliferation”

Assay [5] concerns BT474 (breast cancer cells, Her2 overexpression). Briefly: Cell proliferation and growth inhibition analysis. The assay is classed as cell-based. To be noted: Homo sapiens, BT-474, 72 hours, read-out: Inhibitory activity on cell proliferation (IC50, μM) BT474. How it is done: as §6, with “Cell proliferation and growth inhibition analysis: H1975 (non-small cell lung cancer cells, EGFR^L858/T790M), HCC827 (non-small cell lung cancer cells, EGFR^del E746-A750), A549 (non-small cell lung cancer cells, EGFR wild-type), BT474 (breast cancer cells, Her2 overexpression), SK-BR-3 (breast cancer cells, Her2 overexpression), MCF-7 (breast cancer cells, […]) cells were obtained from ATCC. Cell proliferation” for “Cell proliferation”

A further assay deals with BLK (Homo sapiens (Human), UniProt P51451). Briefly: BLK kinase activity assay (Caliper). It is filed as biochemical. The note with it: read-out: Inhibitory activity on kinase (IC50, nM) BLK. As for the experimental part:
as §1, §2, §3, §4, §5

Another assay addresses EGFR-L858R (Homo sapiens (Human), UniProt P00533, L858R). Nature of the assay: In vitro EGFR kinase activity assay (Z'-Lyte). To be noted: read-out: Inhibitory activity on EGFR kinase (IC50, nM) L858R. It is filed as biochemical.
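For Inhibitory activity on EGFR kinase (IC50, nM) L858R in this document: Cell-free kinase reaction with peptide substrate and ATP, 1.5 h at room temperature, then development step cleaving non-phosphorylated peptide, 10-point dilution series 0.051–1000 nM, phosphopeptide as 100% phosphorylation control.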
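For Inhibitory activity on EGFR kinase (IC50, nM) T790M/L858R in this document: Cell-free kinase reaction with peptide substrate and ATP, 1.5 h at room temperature, development cleaving unphosphorylated peptide, 10-point dilution 0.051–1000 nM, phosphopeptide as 100% phosphorylation control.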
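For Inhibitory activity on EGFR kinase (IC50, nM) WT in this document: Ten-point dose series from 5.1×10^−11 to 1.0×10^−6 mol/L, kinase reaction 1.5 h at room temperature, then 1 h development cleaving unphosphorylated peptide, phosphopeptide as 100% phosphorylation control.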

Chain of EGFR-L858R (P00533 25-1210 L858R): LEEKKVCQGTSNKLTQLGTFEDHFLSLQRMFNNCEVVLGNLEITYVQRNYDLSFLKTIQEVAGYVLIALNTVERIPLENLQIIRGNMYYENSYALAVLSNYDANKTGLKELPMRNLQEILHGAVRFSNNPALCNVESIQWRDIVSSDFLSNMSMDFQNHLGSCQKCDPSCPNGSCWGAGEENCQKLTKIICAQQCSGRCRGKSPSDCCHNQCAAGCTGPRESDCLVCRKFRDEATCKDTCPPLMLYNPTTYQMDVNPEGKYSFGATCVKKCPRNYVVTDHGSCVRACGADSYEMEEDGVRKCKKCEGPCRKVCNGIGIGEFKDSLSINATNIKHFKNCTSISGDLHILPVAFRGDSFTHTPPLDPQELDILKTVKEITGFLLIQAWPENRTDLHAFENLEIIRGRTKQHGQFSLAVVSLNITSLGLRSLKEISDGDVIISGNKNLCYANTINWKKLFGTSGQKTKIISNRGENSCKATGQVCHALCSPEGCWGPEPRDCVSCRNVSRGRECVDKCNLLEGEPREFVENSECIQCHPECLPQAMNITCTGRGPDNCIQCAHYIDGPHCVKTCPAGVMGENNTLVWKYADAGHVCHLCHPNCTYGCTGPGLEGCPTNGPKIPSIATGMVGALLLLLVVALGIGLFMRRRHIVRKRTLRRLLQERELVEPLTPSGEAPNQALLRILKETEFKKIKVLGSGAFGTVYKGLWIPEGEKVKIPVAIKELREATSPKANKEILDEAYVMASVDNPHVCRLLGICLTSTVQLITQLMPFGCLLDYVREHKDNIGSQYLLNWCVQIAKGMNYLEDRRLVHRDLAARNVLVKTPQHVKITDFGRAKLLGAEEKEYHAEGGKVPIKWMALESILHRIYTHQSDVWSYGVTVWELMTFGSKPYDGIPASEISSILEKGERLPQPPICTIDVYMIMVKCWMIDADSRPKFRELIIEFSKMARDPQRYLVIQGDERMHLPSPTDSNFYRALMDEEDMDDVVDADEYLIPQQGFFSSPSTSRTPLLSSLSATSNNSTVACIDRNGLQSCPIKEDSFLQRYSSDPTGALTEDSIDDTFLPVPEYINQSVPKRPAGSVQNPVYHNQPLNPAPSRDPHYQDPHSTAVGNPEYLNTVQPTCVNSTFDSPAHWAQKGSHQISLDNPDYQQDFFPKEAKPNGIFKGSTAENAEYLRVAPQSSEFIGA
Chain of BLK (P51451 whole entry): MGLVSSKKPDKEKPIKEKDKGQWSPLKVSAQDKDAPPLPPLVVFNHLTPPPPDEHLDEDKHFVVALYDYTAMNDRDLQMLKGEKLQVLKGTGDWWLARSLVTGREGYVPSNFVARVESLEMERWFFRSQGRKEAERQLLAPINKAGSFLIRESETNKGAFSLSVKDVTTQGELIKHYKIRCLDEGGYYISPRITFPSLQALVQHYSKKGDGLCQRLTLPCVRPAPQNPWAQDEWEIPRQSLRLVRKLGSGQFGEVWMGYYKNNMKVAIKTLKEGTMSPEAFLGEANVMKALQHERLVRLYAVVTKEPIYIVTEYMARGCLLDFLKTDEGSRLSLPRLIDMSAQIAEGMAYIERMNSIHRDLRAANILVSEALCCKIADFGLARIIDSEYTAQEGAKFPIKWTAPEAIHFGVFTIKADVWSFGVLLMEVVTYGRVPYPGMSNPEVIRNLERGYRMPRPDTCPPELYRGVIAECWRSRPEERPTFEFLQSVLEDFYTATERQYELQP
Experimental for EGFR-T790M: (§8) Inhibitory effects in vitro of the compounds provided in the present invention on EGFR kinase activity was tested as follows:
(§9) 10 concentration gradients, from 5.1×10^−11 mol/L to 1.0×10^−6 mol/L, were set for all of the compounds to be tested.
(§10) 10 μL of kinase reaction system comprised 2.5 μL of compound solution, 5 μL of Kinase/peptide mixture, and 2.5 μL of ATP solution. 5 μL of phosphopeptide solution was used in place of kinase/peptide mixture as 100% phosphorylation control. […] After thoroughly mixing the solution within the plate, the plate was incubated at room temperature for 1.5 hours. 5 μL of DevelopmentSolution was added into each well, and then the plate was incubated at room temperature for another 1 hour, and non-phosphorylated peptide was cleaved within this period. Finally, the reaction was quenched by adding 5 μL of Stop Reagent. The Plate was measured with EnVision Multilabel Reader (Perkin Elmer). Experimental data were calculated by using GraphPad Prism version 4.0. Each experiment was repeated more than three times.
Experimental for wild-type EGFR: as §8, §9, §10

As to `COc1ccc(Nc2ncc3ncc(=O)n(-c4ccc(N)cc4)c3n2)cc1` [Compound 001], the IC50 is above 10000 nM on EGFR-T790M; above 10000 nM on EGFR-L858R/T790M; above 10000 nM on wild-type EGFR; 27 nM at FLT3; above 10 µM in [1]; above 10 µM in assay [2]. Besides, the IC50 in the assay on MCF-7 is above 10 µM; in assay [3], above 10 µM; in [4], above 10 µM; in assay [5], above 10 µM; on BLK, above 10000 nM; on EGFR-L858R it was above 10000 nM.
Regarding `C=CC(=O)Nc1ccc(-n2c(=O)cnc3cnc(Nc4ccc(OC)cc4)nc32)cc1` [Compound 002, N-(4-(2-(4-methoxyphenylamino)-7-oxo-8(7H)-pteridin-yl)phenyl)acrylamide], the IC50 was 665 nM on EGFR-T790M; 606 nM at EGFR-L858R/T790M; 446 nM on wild-type EGFR; 128 nM at FLT3; 2.75 µM in assay [1]; 1.29 µM in assay [2]. Besides, the IC50 with MCF-7 is 1.51 µM; in assay [3], 1.23 µM; in assay [4], 1.57 µM; in assay [5], above 10 µM; at BLK, 3040 nM; at EGFR-L858R it was 546 nM.
As for `C=CC(=O)Nc1ccc(-n2c(=O)cnc3cnc(Nc4ccc(N5CCOCC5)cc4)nc32)cc1` [Compound 003, N-(4-(2-(4-morpholino-phenylamino)-7-oxo-8(7H)-pteridin-yl)phenyl)acrylamide], the IC50 was 8700 nM on EGFR-T790M; 3300 nM on EGFR-L858R/T790M; 8010 nM at wild-type EGFR; 137 nM on FLT3; above 10 µM in [1]; 3.01 µM in assay [2]. For the same compound, the IC50 in the assay with MCF-7 was above 10 µM; in assay [3], above 10 µM; in assay [4], above 10 µM; in [5] it was above 10 µM; at BLK, 4170 nM; on EGFR-L858R, 4080 nM.
In the case of `C=CC(=O)Nc1ccc(-n2c(=O)c(C)nc3cnc(Nc4ccc(OC)cc4)nc32)cc1` [Compound 004, N-(4-(2-(4-methoxyphenylamino)-6-methyl-7-oxo-8(7H)-pteridin-yl)phenyl)acrylamide], the IC50 at EGFR-T790M is above 10000 nM; on EGFR-L858R/T790M, above 10000 nM; on wild-type EGFR, 3180 nM; on FLT3, 206 nM; in [1], above 10 µM; in assay [2], 3.33 µM. The IC50 was above 10 µM in the assay with MCF-7; above 10 µM in assay [3]; above 10 µM in [4]; above 10 µM in [5]; above 10000 nM on BLK; 4880 nM on EGFR-L858R.
With `COc1ccc(Nc2ncc3ncc(=O)n(-c4cccc(N)c4)c3n2)cc1` [Compound 005], the IC50 on EGFR-T790M is above 10000 nM; at EGFR-L858R/T790M, above 10000 nM; at wild-type EGFR, above 10000 nM; at FLT3, 30 nM; in assay [1] it was above 10 µM; in [2], above 10 µM. Moreover, the IC50 is above 10 µM in the assay with MCF-7; above 10 µM in [3]; above 10 µM in [4]; above 10 µM in [5]; above 10000 nM on BLK; 87200 nM at EGFR-L858R.
`C=CC(=O)Nc1cccc(-n2c(=O)cnc3cnc(Nc4ccc(OC)cc4)nc32)c1` [Compound 006, N-(3-(2-(4-methoxyphenylamino)-7-oxo-8(7H)-pteridin-yl)phenyl) acrylamide]: the IC50 on EGFR-T790M turned out to be 19.4 nM; at EGFR-L858R/T790M, 8.4 nM; at wild-type EGFR, 10.6 nM; at FLT3, 1590 nM; in [1], 0.133 µM; in assay [2] it was 0.009 µM. Also, the IC50 in the assay with MCF-7 worked out at 15 µM; in assay [3], 0.73 µM; in assay [4], 2.35 µM; in [5], 2.24 µM; on BLK, 69 nM; on EGFR-L858R, 10.1 nM.
Take `CCC(=O)Nc1cccc(-n2c(=O)cnc3cnc(Nc4ccc(OC)cc4)nc32)c1` [Compound 007, N-(3-(2-(4-methoxyphenylamino)-7-oxo-8(7H)-pteridin-yl)phenyl) propionamide]: the IC50 at EGFR-T790M is above 10000 nM; at EGFR-L858R/T790M it was above 10000 nM; at wild-type EGFR, above 10000 nM; at FLT3, 1490 nM; in [1], above 10 µM; in assay [2] it was above 10 µM. The IC50 in the assay on MCF-7 is above 10 µM; in [3] it was above 10 µM; in assay [4], above 10 µM; in [5] it was above 10 µM; on BLK, above 10000 nM; on EGFR-L858R it was above 10000 nM.
Take `CCC(=O)Nc1ccc(-n2c(=O)cnc3cnc(Nc4ccc(OC)cc4)nc32)cc1` [Compound 008, N-(4-(2-(4-methoxyphenylamino)-7-oxo-8(7H)-pteridin-yl)phenyl) propionamide]: the IC50 at EGFR-T790M is above 10000 nM; at EGFR-L858R/T790M it was above 10000 nM; on wild-type EGFR, above 10000 nM; at FLT3 it was 115 nM; in [1], above 10 µM; in [2] it was above 10 µM. Further, the IC50 in the assay on MCF-7 is above 10 µM; in [3] it was 6.12 µM; in [4], above 10 µM; in [5], above 10 µM; on BLK, above 10000 nM; at EGFR-L858R, above 10000 nM.
